Laboratory results: patent US5180840A, “Process for preparing analogs of artemisinin” (SRI International, priority 1991, dated 1993)
Like-named read-outs stand apart in the source and are kept apart here.

Assays:
[1] = test system: D-6 African P. falciparum clone; experiment: in vitro testing against P. falciparum, D-6 African clone; format: cell-based
Source text: (§1) The analog 1 was sent to Walter Reed Army Institute of Research (WRAIR) for in vitro testing against P. falciparum using modifications of the procedures of Desjardins et al, 1979, and Milhous et al, 1985, (Desjardins, R. E., C. J. Canfield, D. E. Haynes, and J. D. Chulay, Antimicrob. Angents Chemother., Vol. 16, 710-718 (1979); Milhous, W. K., N. F. Weatherly, J. H. Bowdre, and R. E. Desjardins, Antimicrob. Agents Chemother. Vol. 27, 525-530, 1985.) to assess the intrinsic activity of compound 1 as an anti-malarial drug relative to simultaneous known controls such as chloroquine, mefloquine; pyrimethamine, sulfadoxine, tetracycline, qinghaosu or quinine. Since some anti-malarials are more static than cidal in action, it is necessary to extend the incubation period to assess the effects of such drugs on parasite growth rates. In order to insure exponential parasite growth and maximum uptake of radioisotope throughout the extended incubation, reduced starting parasitemias (0.2%) and reduced red cell hematocrits (1.0%) are required. As a result, drugs which are actively incorporated into erythrocytes (such as chloroquine or qinghaosu) will have slightly lower 50% inhibitory concentrations than in other assay systems employing higher red cell hematocrits. Except for the contribution from the 10% normal pooled human plasma and added 10^-10 M (0.014 ng/ml) PABA, the culture medium is folate-free. The trace amount of PABA insures exponential growth of the sulfonamide-susceptible parasite clone without antagonizing the activity of antifol anti-malarials.
(§2) All test compounds are solubilized in DMSO and diluted 400-fold (to rule out a DMSO effect) in culture medium with plasma for a starting concentration of at least 12,500 ng/ml. Drugs are subsequently diluted fivefold using the Cetus Pro/Pette™ system utilizing a range of concentrations from 0.8 ng/ml to 12,500 ng/ml. Fifty percent inhibitory concentrations are reported in ng/ml.
(§3) Table 1 summarizes differences in the susceptibility profiles of the two control P. falciparum clones (Oduola, A. M. J., N. F. Weatherly, J. H. Bowdre, R. E. Desjardins, Thirty-second Annual Meeting, American Society of Tropical Medicine and Hygiene, San Antonio, Tex., Dec. 4-8, 1983) and provides results of testing. The W-2 Indochina P. falciparum clone is resistant to chloroquine, pyrimethamine and sulfadoxine but […]. The D-6 African P. falciparum clone is susceptible to chloroquine, pyrimethamine and sulfadoxine but […].

[2] = test system: P. falciparum; experiment: in vitro testing against P. falciparum (two strains together / assay medium); format: cell-based
Source text: as §1, with “Except for the contribution from the 10% normal pooled human plasma and added 10^-10 M (0.014 ng/ml) PABA, the culture medium is folate-free. The trace amount of PABA insures exponential growth of the sulfonamide-susceptible parasite clone without antagonizing the activity of antifol anti-malarials.” left out

[3] = test system: W-2 Indochina P. falciparum clone; experiment: in vitro testing against P. falciparum, W-2 Indochina clone; format: cell-based; details: for IC50: Plasmodium falciparum
Source text: as §1, §2, §3

[4] = test system: W-2 Indochina P. falciparum clone; details: W-2 Indochina clone; cited from earlier work
[5] = test system: D-6 African P. falciparum clone; details: D-6 African clone; cited from earlier work
[6] = Plasmodium falciparum, D-6 African clone (strain head not given; assigned), read-out: IN VITRO ED50 (fifty percent inhibitory concentration)
[7] = Plasmodium falciparum, D-6 African clone (strain head not given; assigned), read-out: IN VITRO ED50 (fifty percent inhibitory concentration), × 10^-9 M

IC50 [1, 6] [ng/mL]	IC50 [1, 7] [nM]	SMILES	susceptibility of the clone [4]	susceptibility of the clone [5]	also measured
21.1	83	C[C@@]12CC[C@H]3CCC[C@H]4CC(=O)O[C@H](O1)[C@@]34OO2 (relative stereo) [Compound 1, (±)-13,14-desmethylartemisinin]			antimalarial activity (in words) ([2]; data of Table 1): highly active antimalarial agent; antimalarial potency ([2]; varies with strain, versus the other five compounds): still in the nanogram range; potency relative to chloroquine ([3]; W-2 Indochina strain): about three times as potent as the classical antimalarial agent chloroquine; activity relative to the natural product Qinghaosu ([3]; W-2 Indochina strain, fraction as active as Qinghaosu): approximately 1/2
		CCO[C@H]1O[C@@H]2O[C@@]3(C)CC[C@H]4[C@H](C)CC[C@@H]([C@H]1C)[C@@]24OO3 [Arteether]			IN VITRO ED50 (fifty percent inhibitory concentration) ([1]; D-6 African clone (strain head not given; assigned)): 1.87 ng/mL; IC50 ([1]; D-6 African clone (strain head not given; assigned), read-out: IN VITRO ED50 (fifty percent inhibitory concentration), × 10^-9 M): 6 nM; IN VITRO ED50 (fifty percent inhibitory concentration) ([3]; W-2 Indochina clone (strain head not given; assigned)): 1.23 ng/mL
		CCN(CC)CCCC(C)Nc1ccnc2cc(Cl)ccc12 (stereo not drawn) [Chloroquine]	resistant	susceptible	IC50 ([1]; Plasmodium falciparum, read-out: IN VITRO ED50 (fifty percent inhibitory concentration), ng/ml): 5.91 ng/mL; IC50 ([1]; Plasmodium falciparum, read-out: IN VITRO ED50 (fifty percent inhibitory concentration), × 10^-9 M): 11.5 nM; IC50 ([3]; read-out: IN VITRO ED50 (fifty percent inhibitory concentration), ng/ml): 26.8 ng/mL; IC50 ([3]; read-out: IN VITRO ED50 (fifty percent inhibitory concentration), × 10^-9 M): 52.1 nM
0.47	1.68	C[C@@H]1CC[C@H]2[C@@H](C)C(O)O[C@@H]3O[C@@]4(C)CC[C@@H]1[C@]32OO4 (stereo partly drawn) [Dihydro-quinghaosu]			
22.2	53.7	OC(c1cc(C(F)(F)F)nc2c(C(F)(F)F)cccc12)C1CCCCN1 (stereo not drawn) [Mefloquine]	susceptible	resistant	
3.09	11	C[C@@H]1CC[C@H]2[C@@H](C)C(=O)O[C@@H]3O[C@@]4(C)CC[C@@H]1[C@]32OO4 [Qinghaosu, artemisinin]			
		CCc1nc(N)nc(N)c1-c1ccc(Cl)cc1 [pyrimethamine]	resistant	susceptible	
		COc1ncnc(NS(=O)(=O)c2ccc(N)cc2)c1OC [sulfadoxine]	resistant	susceptible	
